The text below walks through data of patent US10301288B2, “Kinase inhibitors” (Topivert Pharma Limited, priority 2013, dated 2019).

SMILES strings stand for the structures.

The subject of data set [1] is Naïve CD4+ T cells. As to the kind of experiment: (g) T cell proliferation. It counts as cell-based. The note with it: Homo sapiens, assay (g), read-out: IC50 for inhibition of T cell proliferation. As for the experimental part:
PBMCs from healthy subjects are separated from whole blood using a density gradient (Lymphoprep, Axis-Shield Healthcare). The lymphocyte fraction is first enriched for CD4+ T cells by negative magnetic cell sorting as per the manufacturer's instructions (Miltenyi Biotec 130-091-155). Naïve CD4+ T cells are then separated using positive magnetic selection of CD45RA+ cells using microbeads as per the manufacturer's instructions (130-045-901). Cells are plated at 2×10^5 cells per well in 100 μL RPMI/10% FBS on 96 well flat bottomed plate (Corning Costar). 25 μL of test compound are diluted to the appropriate concentration (8× final conc.) in normal medium and added to duplicate wells on the plate to achieve a dose response range of 0.03 ng/mL-250 ng/mL. DMSO is added as a negative control. Plates are allowed to pre-incubate for 2 hours before stimulation with 1 μg/mL anti-CD3 (OKT3; eBioscience). After 72 h, the medium in each well is replaced with 150 μL of fresh medium containing 10 μM BrdU (Roche). […] The reaction is stopped by addition of 50 μL of 1 M H2SO4, and read for absorbance at 450 nm on a plate reader (Varioskan® Flash, ThermoFisher Scientific). The IC50 is determined from the dose response curve.

Data set [2] concerns HT29 cells. As to the kind of experiment: (d) IL-1β-induced IL-8 release in HT29 cells. The note with it: Homo sapiens, HT-29, read-out: IC50 for Inhibition of Cytokine Release, IL-8. It counts as cell-based. As for the experimental part: HT29 cells, a human colon adenocarcinoma cell line, are plated in a 96 well plate (24 hrs) and pre-treated with compounds at the desired concentration for 2 hours before addition of 5 ng/ml of IL-1β (Abeam) for 24 hours. Supernatants are harvested for IL-8 quantification by Sandwich ELISA (Duo-set, R&D System). The IC50 is determined from the dose response curve.

A short description of data set [3]: Hepatic microsomal stability, rat. It counts as in vitro ADME. The note with it: pooled liver microsomes, read-out: Mean intrinsic clearance. As to the method:
• Microsomal stability assays were performed with incubations of test compounds at 0.1 μM (n=2, final DMSO concentration 0.25%), and carried out using pooled human, […], rat and Cynomolgus macaque hepatic microsomes from Xenotech (Lots 1210153, 0810143 and 1110042, respectively) at 0.25 mg protein/mL in the presence of cofactor, NADPH. The incubations were performed at 37° C. with 100 μL aliquots taken from the incubation, at 0, 2, 5, 10 and 20 minutes (and, in the case of Cynomolgus macaque hepatic microsomes, 40 minutes) and reactions terminated by addition of 100 μL of acetonitrile containing carbamazepine as analytical internal standard. […] Half-life values were calculated from the relationship T1/2 (min)=−0.693/λ • where λ was the slope of the Ln concentration vs time curve. • The in vitro intrinsic clearance, Clint (mL/min/kg), was calculated and scaled to hepatic extraction ratios using the following scaling parameters and formulae.
Formulae Clint(tissue clearance) mL/min/kg=[0.693/t½ (min)]×[1/microsomal protein concentration mg/mL]×[mg microsomes/g liver]×[g liver/kg body weight] […] Half-life values were calculated from the relationship T1/2 (min)=−0.693/λ • where λ was the slope of the Ln concentration vs time curve. • Standard compounds testosterone, midazolam and 4-methylumbelliferone are included in the assay design.
(In general: Liver microsomes are vesicles of endoplasmic reticulum, rich in cytochrome P450 enzymes.)

Data set [4] in a line: Chemical stability in solid form at 40° C. and 75% relative humidity. It counts as physicochemical. As to the method: The results of the study are reported in the table below (where chemical purity was assessed using HPLC).
Data set [5] relates to TNBS-induced colitis in mice. The data set can be described thus: (C) TNBS-induced colitis in mice. It counts as in vivo, male BDF1 mice. The note with it: for LP inflammation / Ulcer grade: 2 days. As to the method: Non-fasted, 10-12 week old, male BDF1 mice are dosed by oral gavage twice daily with either vehicle (5 mL/kg), reference item (Budesonide 2.5 mg/kg) or test compound (1 or 5 mg/kg) one day before (Day −1) stimulation of the inflammatory response by treatment with 2,4,6-trinitrobenzenesulphonic acid (TNBS) (15 mg/mL in 50% ethanol/50% saline). On Day 0 of the study TNBS (200 μL) is administered intra-colonically via a plastic catheter with BID dosing of the vehicle, reference or test compound continuing for 2 or 4 days. During the study animals are weighed every day and stool observations are made and recorded as a score, based on stool consistency. At the time of sacrifice on Day 2 (or Day 4) the large intestine is removed and the length and weight recorded. Sections of the colon are taken for histopathology scoring to determine disease severity.

A short description of data set [6]: Plasma pharmacokinetics in beagle dogs. It counts as in vivo, male beagle dogs. The following applies: Dog. As for the experimental part: Blood samples (approximately 1.5 mL) were collected from jugular vein such that the samples were obtained at pre-dose, 0.25, 0.5, 1, 2, 4, 6, 8, and 24 hr (p.o.) and pre-dose, 0.08, 0.25, 0.5, 1, 2, 4, 8, 12, 24 and 32 hr (i.v.) post dose. The blood samples were collected from a set of three dogs at each time point in labelled micro centrifuge tube containing K2EDTA as anticoagulant. Plasma samples were separated by centrifugation at 2500 g for 10 min of whole blood and stored below −70° C. until bioanalysis. All samples were processed for analysis by protein precipitation using acetonitrile and analyzed with LC-MS/MS method (LLOQ=0.50 ng/mL). Pharmacokinetic parameters were calculated using the non-compartmental analysis tool of Phoenix WinNonlin® (Version 6.3).

In data set [7] the test system is 71 receptors and 26 enzymes. The data set can be described thus: Cerep Diversity Profile. It is filed as binding. The following applies: 300 nM; any of 71 receptors and 26 enzymes.
The mark [8] stands for this setting: male, beagle, plasma, 0.05 mg/kg intravenous.

With `C#Cc1cc(Nc2nccc(Oc3ccc(NC(=O)Nc4cc(C(C)(C)C)nn4-c4ccc(C)cc4)c4ccccc34)n2)cc(C(=O)NCCOCCOCCOC)c1` [Example 2, 3-((4-((4-(3-(3-(tert-Butyl)-1-(p-tolyl)-1H-pyrazol-5-yl)ureido)naphthalen-1-yl)oxy)pyrimidin-2-yl)amino)-5-ethynyl-N-(2-(2-(2-methoxyethoxy)ethoxy)ethyl)-benzamide], in data set [1], the IC50 worked out at 2.7 nM. Moreover, the IC50 in data set [2] amounted to 3.3 nM. Besides, in data set [3], the microsomal CLint at 0.1 μM was determined as 199 µL/min/mg. Further, the “chemical purity (HPLC), solid form” value in data set [4] (0 months) came to 98.52%. Moreover, the “chemical purity (HPLC), solid form” value in data set [4] (1 month, 40° C./75% RH) came out at 96.88%. Further, the “chemical purity (HPLC), solid form” value in data set [4] (3 months, 40° C./75% RH) was 94.32%. In data set [5] (1 mg/kg oral BID), this compound returned an LP inflammation of 2.9 ± 0.3 and a Ulcer grade of 3.5 ± 0.4. In data set [5] (5 mg/kg oral BID), this compound had an LP inflammation of 2.2 ± 0.4 and a Ulcer grade of 3.0 ± 0.5. For the same compound, in data set [5] (dosed orally at 5 mg/kg), the “ulcer grade and epithelial repair compared to the vehicle control (histopathology)” value is “marked improvements in ulcer grade and epithelial repair”. Besides, in data set [5] (oral dosing), the “inflammatory cell infiltrate in the reticular and lamina propria zones (histopathology)” value is on record as “marked reduction”. Also, the Fpo in data set [6] (1 mg/kg p.o., Plasma) amounted to 0%. In data set [6] (setting [8]), the AUC(0-inf) (in general, the area under the concentration-time curve extrapolated to infinity) amounted to 223 ± 92 ng·h/mL; the area under the curve AUC(0-t) (in general, exposure summed from dosing to a finite time, without extrapolation to infinity) is 218 ± 90 ng·h/mL; the C0 came to 1370 ng/mL; the Vd (usually the apparent volume that relates the amount in the body to the concentration in plasma or blood) stood at 0.2 ± 0.1 L/kg. Besides, in data set [6] (setting [8]), the clearance (as a rule, the rate of elimination divided by the concentration) turned out to be 4.1 ± 1.4 mL/min/kg and the half-life (in general, the time in which the quantity being followed falls by half) is 1.9 ± 0.4 h. The “inhibition of the control specific binding in the receptor binding assays or enzyme assays” value in data set [7] was “less than 25%”.
